Experimental data: ChEMBL document CHEMBL5614457, “New Directions in Antibacterial, Anticancer, and Gene Editing Therapies” (ACS Med Chem Lett, 2024)

molecular target: Protein cereblon/B-cell lymphoma 6 protein (Homo sapiens) (UniProt Q96SW2+P41182); assay: PROTAC activity at CRBN/N-terminal-HibiT tagged BCL6 in human HT-1080 cells transfected with pLV-UBC-N-HiBiT- BCL6-PGK-puro assessed as degradation of protein by measuring ratio of trough concentration of protein in cell compared to the concentration of protein before the cell contact with compound (Ymin) incubated for 5 hrs by luminescence based NANO-Glo HIBiT lytic detection assay

Compound	Activity
Cn1nc(C2CCC(=O)NC2=O)c2cccc(N3CCN(CC4CCN(c5ncc(Cl)c(Nc6ccc7c(c6)c6c(c(=O)n7C)OCC(F)(F)[C@H](C7CC7)N6)n5)CC4)CC3)c21 (some centres not stated)	< 30%
Cn1nc(C2CCC(=O)NC2=O)c2cccc(N3CCC(CN4CCN(c5ncc(F)c(Nc6ccc7c(c6)c6c(c(=O)n7C)OCC(F)(F)[C@H](C7CC7)N6)n5)CC4)CC3)c21 (some centres not stated)	< 30%
Cn1nc(C2CCC(=O)NC2=O)c2cccc(N3CCC(OC4CCN(c5ncc(Cl)c(Nc6ccc7c(c6)c6c(c(=O)n7C)OCC(F)(F)[C@H](C7CC7)N6)n5)CC4)CC3)c21 (some centres not stated)	< 30%
C[C@@H](C1CCN(c2cccc3c(C4CCC(=O)NC4=O)nn(C)c23)CC1)N1CCN(c2ncc(Cl)c(Nc3ccc4c(c3)c3c(c(=O)n4C)OCC(F)(F)[C@H](C4CC4)N3)n2)CC1 (some centres not stated)	< 30%
Cn1nc(C2CCC(=O)NC2=O)c2cccc(N3CCC(CN4CCN(c5cc(Nc6ccc7c(c6)c6c(c(=O)n7C)OCC(F)(F)[C@H](C7CC7)N6)c(Cl)cn5)CC4)CC3)c21 (some centres not stated)	< 30%
Cn1nc(C2CCC(=O)NC2=O)c2ccc(N3CCC(CN4CCN(c5ncc(F)c(Nc6ccc7c(c6)c6c(c(=O)n7C)OCC(F)(F)[C@H](C7CC7)N6)n5)CC4)CC3)cc21 (some centres not stated)	30%
Cn1nc(C2CCC(=O)NC2=O)c2cccc(C3CCN(CC4CCN(c5ncc(Cl)c(Nc6ccc7c(c6)c6c(c(=O)n7C)OCC(F)(F)[C@H](C7CC7)N6)n5)CC4)CC3)c21 (some centres not stated)	< 30%

More lines, now with the values ahead:

Activity	Compound
< 30%	Cn1nc(C2CCC(=O)NC2=O)c2cccc(N3CCC(CN4CCN(c5ncc(Cl)c(Nc6ccc7c(c6)c6c(c(=O)n7C)OCC(F)(F)[C@H](C7CC7)N6)n5)CC4)CC3)c21 (some centres not stated)
< 30%	Cn1nc(C2CCC(=O)NC2=O)c2cccc(N3CCC(CN4CCN(c5ncc(Br)c(Nc6ccc7c(c6)c6c(c(=O)n7C)OCC(F)(F)[C@H](C7CC7)N6)n5)CC4)CC3)c21 (some centres not stated)
< 30%	Cn1c(=O)c2c(c3cc(Nc4nc(N5CCN(CC6CCN(c7cccc8c7C(=O)N(C7CCC(=O)NC7=O)C8=O)CC6)CC5)ncc4Cl)ccc31)N[C@@H](C1CC1)C(F)(F)CO2 (some centres not stated)
< 30%	Cn1nc(C2CCC(=O)NC2=O)c2ccc(N3CCC(CN4CCN(c5cc(Nc6ccc7c(c6)c6c(c(=O)n7C)OCC(F)(F)[C@H](C7CC7)N6)c(Cl)cn5)CC4)CC3)cc21 (some centres not stated)
< 30%	Cn1nc(C2CCC(=O)NC2=O)c2cccc(C3CCN(CC4CCN(c5ncc(F)c(Nc6ccc7c(c6)c6c(c(=O)n7C)OCC(F)(F)[C@H](C7CC7)N6)n5)CC4)CC3)c21 (some centres not stated)
